We go through five compounds from US20240239801A1, “PYRIMIDO[5,4,D]PYRIMIDINE COMPOUNDS, COMPOSITIONS COMPRISING THEM AND USES THEREOF” (Université de Montréal, priority 2021, published 2024).

For orientation: EC50 means the concentration that produces a half-maximal response.

Common to all, as to assay: Proliferation inhibition, CellTiter-Glo
Common to all, as to type: cell-based, human
Background: Cellular ATP, detected with luciferase, serves as a proxy for viable cell number.

In one test the test system is A101D. To be noted: Table D-1, 3 days, read-out: A101D Prolif. EC50. As to the method: (§1) All cancer cell lines (A375, A101D, A2058, RKO, HT29 SK-MEL 30, IPC298, HepG2, HCT-116, Lovo, SW620, SW480, NCI-H358, NCI-H2122, Calu-6, NCIH2087, NCIH1755, NCIH1666 and Mewo) were obtained from ATCC and cultured in RPMI-1640 medium (Gibco) supplemented with 5% heat inactivated fetal bovine serum (FBS, Wisent) at 37° C. under 5% CO2. Cells were maintained in T175 flasks (Greiner). They were passaged by removing the culture medium, washing once in 10 mL of room temperature Phosphate Buffered Saline (PBS; Wisent) and incubating at 37° C. with 2 mL of 0.05% Trypsin (Thermo-Fisher). Trypsin was then inactivated by adding complete growth medium and the cells were then replated in a T175 culture dish at the appropriate dilution. All cell lines were routinely tested for mycoplasma contamination. Tissue type and mutational status of each cell line can be found in Table B.
(§2) CellTiter-Glo® viability analysis was conducted on cells plated in […] of complete RPMI-1640 growth medium in 96-well flat-bottomed white opaque plates (Greiner or Corning) at a density indicated in Table E (for each CCL, number of cells plated per well of a 96-well plate to perform the CellTiter-Glo® cell viability assay). The cell density in cells/cm^2 would correspond to cell number divided by the area of one well of a 96-well plate (0.32 cm^2). Cells were maintained overnight at 37° C. under 5% CO2 before treatment with compounds' dilution series for 3 days.
(§3) In a dilution series 100 μL/well of test substance dilution prepared in complete RPMI-1640 growth media was added to the cells plated initially in 100 μL of growth media. The dilution series is selected so that ten concentrations cover a range from 30 μM or 10 μM to […]. If necessary (as in the case of A375 cells, which were more sensitive to the compounds) the initial concentration of 10 μM is lowered to 1 μM and further dilution is carried out accordingly. The final concentration of DMSO in the assay is set to 0.5%.
(§4) After 3 days of incubation, the growth media were removed by aspiration and 60 μL of diluted CellTiter-Glo® reagent (10 μL CellTiter-Glo® reagent+50 μL of PBS) was added to each well. Cells were allowed to lyse and to equilibrate in CellTiter-Glo® reagent by 5 min incubation on a plate shaker followed by 10 min incubation at room temperature. Luminescence signals were then acquired on a Synergy Neo2 plate reader (Biotek).
(§5) The effect of each compound dilution on the proliferation of cancer cell lines was expressed in % inhibition and calculated as follows. An internal 100% inhibition control (1 μM of trametinib; cat. No. HY-10999; MedChem Express; CAS No. 871700-17-3) was included in each plate and used as a measure of CellTiter-Glo® signal background. The value obtained for trametinib was subtracted from each data point. The average of DMSO (vehicle) controls (set as 0% inhibition) was established and used to calculate % inhibition:
(§6) The ability of each compound to inhibit proliferation was expressed as a EC50 value obtained by plotting the effect values for each data point of a dilution series and fitting the obtained curves using a log(agonist) versus response−variable slope (four parameters) function using GraphPadPrism (V7.0) or Dotmatics Screening Ultra platform.

In the next test the test system is A2058. The conditions noted are these: Table D-1, 3 days, read-out: A2058 Prolif. EC50. As to the method:
as §1, §2, §3, §4, §5, §6

A further test relates to A375. The conditions noted are these: Table D-1, 3 days, read-out: A375 Prolif. EC50. As to the method: as §1, §2, §3, §4, §5, §6
The subject of another test is Calu6. To be noted: Table D-2, 3 days, read-out: Calu6 Prolif. EC50. As to the method: as §1, §2, §3, §4, §5, §6
In the next test the test system is HCT116. The conditions noted are these: Table D-1, 3 days, read-out: HCT116 Prolif. EC50. As to the method:
as §1, §2, §3, §4, §5, §6

The next test relates to HT-29. To be noted: Table D-1, 3 days, read-out: HT-29 Prolif. EC50. As to the method:
as §1, §2, §3, §4, §5, §6

Another test concerns HepG2. The conditions noted are these: Table D-1, 3 days, read-out: HepG2 Prolif. EC50. As to the method: as §1, §2, §3, §4, §5, §6
The next test has as its system IPC298. The conditions noted are these: Table D-1, 3 days, read-out: IPC298 Prolif. EC50. As to the method:
as §1, §2, §3, §4, §5, §6

In another test the test system is Lovo. To be noted: Table D-2, 3 days, read-out: Lovo Prolif. EC50. As to the method:
as §1, §2, §3, §4, §5, §6

The subject of another test is NCI-H2122. The conditions noted are these: Table D-2, 3 days, read-out: NCI-H2122 Prolif. EC50. As to the method:
as §1, §2, §3, §4, §5, §6

For a further test, the system named is NCI-H358. The conditions noted are these: Table D-2, 3 days, read-out: NCI-H358 Prolif. EC50. As to the method:
as §1, §2, §3, §4, §5, §6

The test system of a further test is NCIH1755. To be noted: Table D-2, 3 days, read-out: NCIH1755 Prolif. EC50. As to the method: as §1, §2, §3, §4, §5, §6
The subject of another test is NCIH2087. The conditions noted are these: Table D-2, 3 days, read-out: NCIH2087 Prolif. EC50. As to the method:
as §1, §2, §3, §4, §5, §6

For another test, the system named is RKO. To be noted: Table D-1, 3 days, read-out: RKO Prolif. EC50. As to the method:
as §1, §2, §3, §4, §5, §6

Another test has as its system SK-MEL30. The conditions noted are these: Table D-1, 3 days, read-out: SK-MEL30 Prolif. EC50. As to the method:
as §1, §2, §3, §4, §5, §6

For a further test, the system named is SW480. To be noted: Table D-2, 3 days, read-out: SW480 Prolif. EC50. As to the method:
as §1, §2, §3, §4, §5, §6

For a further test, the system named is SW620. The conditions noted are these: Table D-2, 3 days, read-out: SW620 Prolif. EC50. As to the method: as §1, §2, §3, §4, §5, §6

Structures are written as SMILES. Where two headings read alike, the source gives them in different places.

For the compound `Cc1c(F)cccc1S(=O)(=O)Nc1ccc(F)c(Nc2ncnc3cnc(-n4cnc5c(-c6cccnc6)cccc54)nc23)c1F` [Example 114], the EC50 in the test with A101D (Homo sapiens, A101D, 72 h) is less than 300 nM; in the test on A2058 (Homo sapiens, A2058, 72 h), less than 300 nM; with A375 (Homo sapiens, A-375, 72 h) it was less than 300 nM; in the test on Calu6 (Homo sapiens, Calu-6, 72 h), greater than 3000 nM; in the test with HCT116 (Homo sapiens, HCT-116, 72 h) it was 300 to 3000 nM; in the test with HT-29 (Homo sapiens, HT-29, 72 h) it was less than 300 nM. In addition, the EC50 with HepG2 (Homo sapiens, HepG2, 72 h) is less than 300 nM; in the test on IPC298 (Homo sapiens, IPC-298, 72 h), less than 300 nM; in the test with Lovo (Homo sapiens, LoVo, 72 h), less than 300 nM; in the test with NCI-H2122 (Homo sapiens, NCI-H2122, 72 h) it was greater than 3000 nM; with NCI-H358 (Homo sapiens, NCI-H358, 72 h), less than 300 nM; in the test on NCIH1755 (Homo sapiens, NCI-H1755, 72 h), greater than 3000 nM. Besides, the EC50 with NCIH2087 (Homo sapiens, NCI-H2087, 72 h) was 300 to 3000 nM; in the test with RKO (Homo sapiens, RKO, 72 h), less than 300 nM; with SK-MEL30 (Homo sapiens, SK-MEL-30, 72 h) it was 300 to 3000 nM; in the test on SW480 (Homo sapiens, SW480, 72 h), greater than 3000 nM; in the test with SW620 (Homo sapiens, SW-620, 72 h), greater than 3000 nM.

As to `COc1ccc(S(=O)(=O)Nc2ccc(F)c(Nc3ncnc4cnc(-n5cnc6c(N)cccc65)nc34)c2F)c(C)c1Cl` [Example 112], the EC50 was less than 300 nM in the test on A101D; less than 300 nM in the test with A2058; less than 300 nM with A375; 300 to 3000 nM in the test with Calu6; 300 to 3000 nM with HCT116; less than 300 nM in the test on HT-29. The EC50 is less than 300 nM in the test with HepG2; less than 300 nM in the test with Lovo; 300 to 3000 nM in the test on NCI-H2122; less than 300 nM in the test with NCI-H358; 300 to 3000 nM with NCIH2087; less than 300 nM with RKO. In addition, the EC50 is less than 300 nM in the test on SK-MEL30, 300 to 3000 nM in the test with SW480 and 300 to 3000 nM with SW620.

As for `Cc1c(F)cccc1S(=O)(=O)Nc1ccc(F)c(Nc2ncnc3cnc(-n4cc(C(=O)N(C)Cc5ccncc5)c5ccccc54)nc23)c1F` [Example 98], the EC50 with A101D, in the test on A2058, with A375, in the test with Calu6, in the test on HCT116 and in the test on HT-29 was less than 300 nM throughout. For the same compound, the EC50 with HepG2 is less than 300 nM; with IPC298, less than 300 nM; with Lovo it was less than 300 nM; in the test with NCI-H2122, 300 to 3000 nM; in the test with NCI-H358, less than 300 nM; with NCIH1755 it was less than 300 nM. For the same compound, the EC50 in the test on NCIH2087 is less than 300 nM; in the test with RKO, less than 300 nM; in the test with SK-MEL30 it was less than 300 nM; with SW480, 300 to 3000 nM; in the test on SW620 it was 300 to 3000 nM.

On to `O=S(=O)(Nc1ccc(F)c(Nc2ncnc3cnc(-n4cnc5c(N6CCC7(CCCO7)CC6)cccc54)nc23)c1F)c1cccc(Cl)c1Cl` [Example 129], for which the EC50 in the test on A101D is less than 300 nM; in the test with A2058 it was less than 300 nM; with A375 it was less than 300 nM; in the test on Calu6, 300 to 3000 nM; in the test with HCT116 it was 300 to 3000 nM; in the test on HT-29 it was less than 300 nM. In addition, the EC50 in the test with HepG2 is less than 300 nM; with IPC298, less than 300 nM; in the test with Lovo, less than 300 nM; with NCI-H2122, 300 to 3000 nM; with NCI-H358 it was less than 300 nM; in the test on NCIH1755, 300 to 3000 nM. The EC50 was 300 to 3000 nM in the test on NCIH2087; less than 300 nM with RKO; less than 300 nM in the test on SK-MEL30; 300 to 3000 nM in the test with SW480; 300 to 3000 nM in the test on SW620.

Consider `Cc1ccc2c(Nc3cccc(Cl)c3F)nccc2c1NC(=O)c1csc2c(N)ncnc12` [Belvarafenib, reference compound], for which the EC50 is less than 300 nM in the test on A375 (Homo sapiens, A-375, 72 h); less than 300 nM in the test on Calu6 (Homo sapiens, Calu-6, 72 h); 300 to 3000 nM with HCT116 (Homo sapiens, HCT-116, 72 h); less than 300 nM in the test on HT-29 (Homo sapiens, HT-29, 72 h); less than 300 nM in the test on HepG2 (Homo sapiens, HepG2, 72 h); less than 300 nM with IPC298 (Homo sapiens, IPC-298, 72 h). Also, the EC50 in the test on Lovo (Homo sapiens, LoVo, 72 h) was less than 300 nM; in the test with NCI-H2122 (Homo sapiens, NCI-H2122, 72 h) it was 300 to 3000 nM; in the test on NCI-H358 (Homo sapiens, NCI-H358, 72 h) it was 300 to 3000 nM; in the test with NCIH1755 (Homo sapiens, NCI-H1755, 72 h) it was greater than 3000 nM; with NCIH2087 (Homo sapiens, NCI-H2087, 72 h), less than 300 nM; in the test with RKO (Homo sapiens, RKO, 72 h), less than 300 nM. Besides, the EC50 with SK-MEL30 (Homo sapiens, SK-MEL-30, 72 h) was less than 300 nM; in the test with SW480 (Homo sapiens, SW480, 72 h) it was 300 to 3000 nM; with SW620 (Homo sapiens, SW-620, 72 h), 300 to 3000 nM.
